This experiment addresses T1, GltTk (Thermococcus kodakarensis, UniProt Q5JID0).
T1 construct: gene TK0986; C-terminally His8-tagged, pBAD24-derived plasmid, E. coli MC1061; purified in decyl maltoside; trimer
Nature of the experiment: isothermal titration calorimetry; crystal structure […] Å. Format: binding. Conditions: eight Na+ concentrations (apparent affinity strongly Na+-dependent); 10 mM Hepes KOH pH 8, 100 mM KCl, 0.15% DM, 25 °C; transport substrate site.

Molecules are shown by their SMILES.

We go through 1 compound from paper PMC5110648, “Coupled binding mechanism of three sodium ions and aspartate in the glutamate transporter homologue GltTk” (Nature Communications, 2016).

T1 sequence (Q5JID0 entry or part of it): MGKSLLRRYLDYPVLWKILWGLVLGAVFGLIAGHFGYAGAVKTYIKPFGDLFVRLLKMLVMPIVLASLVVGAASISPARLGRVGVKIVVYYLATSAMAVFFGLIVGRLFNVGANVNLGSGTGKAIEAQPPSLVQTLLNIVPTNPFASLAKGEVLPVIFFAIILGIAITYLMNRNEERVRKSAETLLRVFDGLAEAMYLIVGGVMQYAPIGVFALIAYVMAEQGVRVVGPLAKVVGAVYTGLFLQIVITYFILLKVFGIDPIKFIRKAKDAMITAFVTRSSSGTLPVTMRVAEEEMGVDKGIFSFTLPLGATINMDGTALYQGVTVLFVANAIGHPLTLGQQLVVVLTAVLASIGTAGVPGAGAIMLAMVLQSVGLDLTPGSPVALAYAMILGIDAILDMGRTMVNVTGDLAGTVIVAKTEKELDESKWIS

Regarding `N[C@@H](CC(=O)O)C(=O)O` [L-aspartate], the Apparent affinity result is recorded as “Apparent affinity of GltTk for aspartate as a function of Na^+ concentration”.
